What was measured:
[1] = system: mature biofilms formed by P. aeruginosa strain ATCC 17647; test: Minimal Biofilm Eradicating Concentration (MBEC), Calgary Biofilm Device, crystal violet; assay type: cell-based, Pseudomonas aeruginosa
Experimental: Biofilms are then washed and treated with e.g., a 2-fold dilution series of the lysin in TSBg at e.g., 37° C. for 24 hours. After treatment, wells are washed, air-dried at e.g., 37° C. and stained with e.g., 0.05% crystal violet for 10 minutes.
Determination of Minimal Biofilm Eradicating Concentrations (MBEC). […] Biofilms were washed and treated with a 2-fold dilution series of each peptide in TSBg at 37° C. for 16 hours. […] The OD600 of extracted crystal violet was determined.

[2] = system: A. baumannii strain BAA-747 persister cells; test: Activity against persister cells, A. baumannii; assay type: cell-based, Acinetobacter baumannii
[3] = system: P. aeruginosa strain PA20 persister cells; test: Activity against persister cells, P. aeruginosa; assay type: cell-based, Pseudomonas aeruginosa
[4] = system: Salmonella typhimurium; test: MIC against Salmonella typhimurium; assay type: cell-based; conditions: Salmonella typhimurium
[5] = system: Klebsiella pneumoniae strain 1139; test: Checkerboard assay (FICI) with antibiotics, K. pneumoniae; assay type: cell-based
How it was run: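 Antibiotics in 2-fold dilutions across one axis against Chp peptide dilutions on the other. FICI = MIC in combination/MIC alone for antibiotic plus the same ratio for peptide; minimum FICI used. Synergy at FICI ≤0.5, strongly additive >0.5 to <1, additive 1-<2, antagonistic ≥2.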

[6] = system: isolates identified as having novel antibiotic resistance; test: MIC against CDC novel antibiotic resistance panel (n = 11); assay type: cell-based
Experimental: MIC values were determined using the methodology described above, i.e., the standard broth microdilution reference method defined by CLSI.
See wwwn.cdc.gov/ARIsolateBank/Panel/PanelDetail?ID=10.

Question: Which results are given for “MRLKMARRRYRLPRRRSRRLFSRTALRMHPRNRLRRIMRGGIRF [Chp2]”?
Answer: MBEC ([1]; MBEC assay format, summary statement, strain not stated there): 0.25 µg/mL; MBEC ([1]; P. aeruginosa ATCC 17647 mature biofilm, tryptic soy broth with 2% glucose): 0.25 µg/mL; MIC Log10 (CFU/mL) Run #1 ([2]; A. baumannii BAA-747 persister cells, 1 hour at 37° C., Run #1, limit of detection 1.6-log10 CFU/mL): 1.5 Log10 (CFU/mL); MIC Log10 (CFU/mL) Run #2 ([2]; A. baumannii BAA-747 persister cells, 1 hour at 37° C., Run #2, limit of detection 1.6-log10 CFU/mL): 2.2 Log10 (CFU/mL); MIC Log10 (CFU/mL) Run #3 ([2]; A. baumannii BAA-747 persister cells, 1 hour at 37° C., Run #3, limit of detection 1.6-log10 CFU/mL): 1.5 Log10 (CFU/mL); MIC Log10 (CFU/mL) Average ([2]; A. baumannii BAA-747 persister cells, average of 3 runs): 1.8 Log10 (CFU/mL); Delta Log ([2]; A. baumannii BAA-747 persister cells, log10 CFU/mL reduction as compared to buffer): 3.1; log10 CFU/mL reduction as compared to buffer ([2]; A. baumannii persister cells, 1 hour at 37° C.): 3.1 log10 CFU/mL; Viable persister count after treatment (log10 CFU/mL) ([3]; P. aeruginosa PA20 persister cells, Run #1, limit of detection 2-log10 CFU/mL): 2.7 Log10 (CFU/mL); Viable persister count after treatment (log10 CFU/mL) ([3]; P. aeruginosa PA20 persister cells, Run #2, limit of detection 2-log10 CFU/mL): 2.3 Log10 (CFU/mL); Viable persister count after treatment (log10 CFU/mL) ([3]; P. aeruginosa PA20 persister cells, Run #3, limit of detection 2-log10 CFU/mL): 2 Log10 (CFU/mL); Viable persister count after treatment (log10 CFU/mL) ([3]; P. aeruginosa PA20 persister cells, average of 3 runs): 2.3 Log10 (CFU/mL); Delta Log ([3]; P. aeruginosa PA20 persister cells, log10 CFU/mL reduction as compared to buffer): 2.1; log10 CFU/mL reduction as compared to buffer ([3]; P. aeruginosa persister cells, 1 hour at 37° C.): 2.1 log10 CFU/mL; MIC [4]: 2 µg/mL; FIC Index ([5]; Chp peptide combined with Azithromycin): 0.25; FIC Index ([5]; Chp peptide combined with Aztreonam): 0.563; FIC Index ([5]; Chp peptide combined with Colistin): 0.625; FIC Index ([5]; Chp peptide combined with Imipenem): 0.5; FIC Index ([5]; Chp peptide combined with Levofloxacin): 0.5; FIC Index ([5]; Chp peptide combined with Meropenem): 0.313; FIC Index ([5]; Chp peptide combined with Tobramycin): 0.5; Chp peptide FIC ([5]; combined with Azithromycin): 0.125; Chp peptide MIC in checkerboard ([5]; combined with Azithromycin): 0.0625 µg/mL; Chp peptide FIC ([5]; combined with Aztreonam): 0.0625; Chp peptide MIC in checkerboard ([5]; combined with Aztreonam): 0.3125 µg/mL; Chp peptide FIC ([5]; combined with Colistin): 0.5; Chp peptide MIC in checkerboard ([5]; combined with Colistin): 0.25 µg/mL; Chp peptide FIC ([5]; combined with Imipenem): 0.25; Chp peptide MIC in checkerboard ([5]; combined with Imipenem): 0.125 µg/mL; Chp peptide FIC ([5]; combined with Levofloxacin): 0.25; Chp peptide MIC in checkerboard ([5]; combined with Levofloxacin): 0.0625 µg/mL; Chp peptide FIC ([5]; combined with Meropenem): 0.0625; Chp peptide MIC in checkerboard ([5]; combined with Meropenem): 0.0625 µg/mL; Chp peptide FIC ([5]; combined with Tobramycin): 0.25; Chp peptide MIC in checkerboard ([5]; combined with Tobramycin): 0.125 µg/mL; MIC ([6]; Bank No. 0346, Escherichia coli): 0.25 µg/mL; MIC ([6]; Bank No. 0347, Klebsiella pneumoniae): 0.5 µg/mL; MIC ([6]; Bank No. 0348, Escherichia coli): 0.5 µg/mL; MIC ([6]; Bank No. 0349, Escherichia coli): 1 µg/mL; MIC ([6]; Bank No. 0350, Escherichia coli): 1 µg/mL; MIC ([6]; Bank No. 0493, Escherichia coli): 0.5 µg/mL; MIC ([6]; Bank No. 0494, Escherichia coli): 1 µg/mL; MIC ([6]; Bank No. 0495, Escherichia coli): 1 µg/mL; MIC ([6]; Bank No. 0497, Klebsiella pneumoniae): 0.5 µg/mL
